Test results reported in US20160183526A1, “FUNGICIDAL COMPOSITIONS” (Dow AgroSciences LLC, priority 2014, published 2016).

Key:
Format in all cases: physicochemical
[1] = Solubility of Compound A and prothioconazole in benzyl acetate/AMD810/cyclohexanone blends at 10° C.; settings: one week
Description: A total of 20 g of each solvent blend was prepared per sample. For example, one of the blends (Blend 4) was prepared by combining cyclohexanone 0.2 (4 g), benzyl acetate 0.2 (4 g) and AMD810 0.6 (12 g). To Blend 4 were added amounts of Compound A and prothioconazole technical active ingredients to achieve saturation concentrations of each. The samples were then stored at 10° C. for one week and then were analysed for soluble active ingredient content.

[2] = Approximate relative solubility of active ingredients in organic solvents at ambient temperature
[3] = as above; remark: listed apart in the source
Description: The approximate solubility of Compound A was determined by mixing a known mass of the active ingredient with an increasing mass of each solvent at ambient temperature. […] The solubility of Compound A in the solvents used in this screening procedure was generally classified within the following concentration ranges: […]

[4] = Accelerated storage stability of Compound A in liquid compositions, 2 weeks at 54° C. (HPLC); settings: 2 weeks 54° C.
Description: The test compositions were prepared in a manner similar to that described in Example 1 using one or more of Compound A, prothioconazole, pyraclostrobin, benzyl acetate, and AMD 810, and a third solvent chosen from cyclohexanone, acetophenone, 2-heptanone, 2-heptanol, oleyl alcohol or 2-ethylhexanol.

[5] = Solubility of a mixture of Compound A and prothioconazole in benzyl acetate/AMD810 blends at 10° C. (HPLC); settings: both actives saturated
Description: A study of the Compound A and prothioconazole solubility in blends of benzyl acetate/AMD810 was conducted. To each solvent blend both actives were added until each was saturated and the resulting mixtures were then stored at 10° C. until equilibrium was obtained. Aliquots of the supernatant layer were taken from each sample, filtered (0.45 μm mesh) and analyzed by HPLC to determine the solution concentration of each active in the blends.

COc1ccnc(C(=O)N[C@H]2COC(=O)[C@H](Cc3ccccc3)[C@@H](OC(=O)C(C)C)[C@H](C)OC2=O)c1OCOC(=O)C(C)C [Compound A, propanoic acid, 2-methyl-, [[4-methoxy-2-[[[(3S,7R,8R,9S)-9-methyl-8-(2-methyl-1-oxopropoxy)-2,6-dioxo-7-(phenylmethyl)-1,5-dioxonan-3-yl]amino]carbonyl]-3-pyridinyl]oxy]methyl ester]
Compound A Solubility @ 10° C. ([1]; Blend 1: cyclohexanone 0/benzyl acetate 0/AMD810 1 (weight fraction)): 3.3 % w/w | Compound A Solubility @ 10° C. ([1]; Blend 2: cyclohexanone 0/benzyl acetate 0.2/AMD810 0.8 (weight fraction)): 4.3 % w/w | Compound A Solubility @ 10° C. ([1]; Blend 3: cyclohexanone 0.2/benzyl acetate 0/AMD810 0.8 (weight fraction)): 4.5 % w/w | Compound A Solubility @ 10° C. ([1]; Blend 4: cyclohexanone 0.2/benzyl acetate 0.2/AMD810 0.6 (weight fraction)): 6.2 % w/w | Compound A Solubility @ 10° C. ([1]; Blend 5: cyclohexanone 0/benzyl acetate 0.4/AMD810 0.6 (weight fraction)): 6.5 % w/w | Compound A Solubility @ 10° C. ([1]; Blend 6: cyclohexanone 0.2/benzyl acetate 0.4/AMD810 0.4 (weight fraction)): 10.5 % w/w | Compound A Solubility @ 10° C. ([1]; Blend 7: cyclohexanone 0/benzyl acetate 0.6/AMD810 0.4 (weight fraction)): 11 % w/w | Compound A Solubility @ 10° C. ([1]; Blend 8: cyclohexanone 0/benzyl acetate 0.8/AMD810 0.2 (weight fraction)): 12 % w/w | Compound A Solubility @ 10° C. ([1]; Blend 10: cyclohexanone 0.2/benzyl acetate 0.6/AMD810 0.2 (weight fraction)): 13.6 % w/w | Compound A Solubility @ 10° C. ([1]; Blend 11: cyclohexanone 0/benzyl acetate 1/AMD810 0 (weight fraction)): 14.3 % w/w | Compound A Solubility @ 10° C. ([1]; Blend 12: cyclohexanone 0.2/benzyl acetate 0.8/AMD810 0 (weight fraction)): 15.2 % w/w | Relative Solubility of Compound A ([2]; in 2-ethylhexyl benzoate): Very Low (<3.0) | Relative Solubility of Compound A ([2]; in 2-ethylhexyl lactate): Very Low (<3.0) | Relative Solubility of Compound A ([2]; in 2-heptanone): Medium (8.4 to 5.6) | Relative Solubility of Compound A ([2]; in Benzyl alcohol): High (>8.4) | Relative Solubility of Compound A ([2]; in Butyl benzoate): Medium (8.4 to 5.6) | Relative Solubility of Compound A ([2]; in Butyl lactate): Medium (8.4 to 5.6) | Relative Solubility of Compound A ([2]; in Butylene carbonate): Very Low (<3.0) | Relative Solubility of Compound A ([2]; in Di-n-butyl carbonate): Very Low (<3.0) | Relative Solubility of Compound A ([2]; in Diethylene glycol monoethyl ether): Low (5.6 to 3.0) | Relative Solubility of Compound A ([2]; in Ethyl Diglycol Acetate): Low (5.6 to 3.0) | Relative Solubility of Compound A ([2]; in Methyl salicylate): High (>8.4) | Relative Solubility of Compound A ([2]; in N,N dimethyl fatty acid amides): Low (5.6 to 3.0) | Relative Solubility of Compound A ([2]; in N-formyl morpholine and propylene carbonate): High (>8.4) | Relative Solubility of Compound A ([2]; in Polyethylene glycol): Very Low (<3.0) | Relative Solubility of Compound A ([2]; in Polypropylene glycol): Very Low (<3.0) | Relative Solubility of Compound A ([2]; in Propylene carbonate): Very Low (<3.0) | Relative Solubility of Compound A ([2]; in Soybean oil): Very Low (<3.0) | Relative Solubility of Compound A ([2]; in Sulfolane): High (>8.4) | Relative Solubility of Compound A ([2]; in dimethyl esters of adipic, glutaric and succinic acids): Low (5.6 to 3.0) | Compound A content of clear solution ([3]; 0.2 g Compound A mixed with 1.38 g cyclohexanone): 12.6 % w/w | Relative Solubility of Compound A ([3]; in 2-ethylhexanol): Very Low (<3.0) | Relative Solubility of Compound A ([3]; in Alkyl naphthalene mixture): Very Low (<3.0) | Relative Solubility of Compound A ([3]; in Benzyl acetate): High (>8.4) | Relative Solubility of Compound A ([3]; in Cyclohexanone): High (>8.4) | Relative Solubility of Compound A ([3]; in Isoparaffin): Very Low (<3.0) | Relative Solubility of Compound A ([3]; in Isopropyl benzoate): Medium (8.4 to 5.6) | Relative Solubility of Compound A ([3]; in Methyl oleate): Very Low (<3.0) | Relative Solubility of Compound A ([3]; in Methyl-5-(Dimethylamino)-2-Methyl-5-Oxopentanoate): High (>8.4) | Relative Solubility of Compound A ([3]; in Pentanedioic acid, 2-methyl-1, 5-dimethyl ester): Medium (8.4 to 5.6) | Relative Solubility of Compound A ([3]; in Tributoxyethyl phosphate): Low (5.6 to 3.0) | Compound A after Storage (% retention) ([4]; wt %: Compound A 3.4, AMD 810 96.0): 49^ % retention | Compound A after Storage (% retention) ([4]; wt %: Compound A 4.1, pyraclostrobin 5.2, benzyl acetate 37.0, AMD 810 20.0, cyclohexanone 8.2, emulsifier blend 14.7): 93^2 % retention | Compound A after Storage (% retention) ([4]; wt %: Compound A 4.9, benzyl acetate 94.1): 85^ % retention | Compound A after Storage (% retention) ([4]; wt %: Compound A 4.9, prothioconazole 7.4, benzyl acetate 46.8, AMD 810 25.2, no third solvent, emulsifier blend 14.7): 91^2 % retention | Compound A after Storage (% retention) ([4]; wt %: Compound A 4.9, pyraclostrobin 5.0, benzyl acetate 48.4, AMD 810 26.0, no third solvent, emulsifier blend 14.7): 92^2 % retention | Compound A after Storage (% retention) ([4]; wt %: Compound A 4.9, pyraclostrobin 6.3, benzyl acetate 41.2, AMD 810 22.2, cyclohexanone 9.8): 98^ % retention | Compound A after Storage (% retention) ([4]; wt %: Compound A 4.9, pyraclostrobin 6.3, benzyl acetate 44.4, AMD 810 23.9, 2-ethyl hexanol 4.9, emulsifier blend 14.7): 96^2 % retention | Compound A after Storage (% retention) ([4]; wt %: Compound A 4.9, pyraclostrobin 6.3, benzyl acetate 44.4, AMD 810 23.9, 2-heptanol 4.9, emulsifier blend 14.7): 94^2 % retention | Compound A after Storage (% retention) ([4]; wt %: Compound A 4.9, pyraclostrobin 6.3, benzyl acetate 44.4, AMD 810 23.9, 2-heptanone 4.9, emulsifier blend 14.7): 93^2 % retention | Compound A after Storage (% retention) ([4]; wt %: Compound A 4.9, pyraclostrobin 6.3, benzyl acetate 44.4, AMD 810 23.9, acetophenone 4.9, emulsifier blend 14.7): 94^2 % retention | Compound A after Storage (% retention) ([4]; wt %: Compound A 4.9, pyraclostrobin 6.3, benzyl acetate 44.4, AMD 810 23.9, oleyl alcohol 4.9, emulsifier blend 14.7): 92^2 % retention | Compound A after Storage (% retention) ([4]; wt %: Compound A 5.0, pyraclostrobin 6.4, benzyl acetate 40.9, AMD 810 22.0, 2-ethyl hexanol 10.0): 95^ % retention | Compound A after Storage (% retention) ([4]; wt %: Compound A 7.7, pyraclostrobin 9.8, benzyl acetate 37.1, AMD 810 20.0, cyclohexanone 9.6): 97^ % retention | Compound A after Storage (% retention) ([4]; wt %: Compound A 7.8, pyraclostrobin 9.9, benzyl acetate 36.7, AMD 810 19.8, 2-ethyl hexanol 9.7): 97^ % retention | Compound A after Storage (% retention) ([4]; wt %: Compound A 12.0, cyclohexanone 85.7): 96^ % retention | Compound A Solubility at 10° C. ([5]; benzyl acetate 0 wt % in blend with AMD810): 3.3 % w/w | Compound A Solubility at 10° C. ([5]; benzyl acetate 20 wt % in blend with AMD810): 4.3 % w/w | Compound A Solubility at 10° C. ([5]; benzyl acetate 40 wt % in blend with AMD810): 6.5 % w/w | Compound A Solubility at 10° C. ([5]; benzyl acetate 60 wt % in blend with AMD810): 11.0 % w/w | Compound A Solubility at 10° C. ([5]; benzyl acetate 80 wt % in blend with AMD810): 12.0 % w/w | Compound A Solubility at 10° C. ([5]; benzyl acetate 100 wt % in blend with AMD810): 14.3 % w/w
